Experiments:
[1] = test system: site of PCP; test: Affinity for the PCP site, competition with (^3 H)PCP on rat brain homogenates; type: binding; conditions: rat brain homogenate, pH 7.7, 25° C., 1 nmole tritiated ligand
[2] = test system: site of TCP; test: Affinity for the TCP site, competition with (^3 H)TCP on rat brain homogenates; type: binding; conditions: rat brain homogenate, pH 7.7, 25° C., 1 nmole tritiated ligand; read-out: ^3 HTCP IC50
[3] = test system: synaptosomal striatal (^3 H)DA capture; test: Inhibition test of the synaptosomal striatal sample (capture) of (^3 H)DA; type: biochemical, Wistar rats
Experimental: This test is carried out according to the method used by Vignon and Lazdunski operating in the following way. Wistar rats weighing 200 to 250 g are killed by cervical dislocation. Their brains are rapidly removed and the striae dissected on ice. The striae are then homogenized with a Teflon glass Potter homogenizer in 50 volumes of tris HCl 10 mM buffer containing 0.32M of sucrose at pH 7.4 and they are centrifuged at 1000 g for 10 min. The supernatants are further centrifuged at 10000 g for 20 min. The resulting deposits P2 containing the crude synaptosomes are used without supplementary purification.
The synaptosomes are balanced with the compound to be tested for 30 min at 30° C. in the Ringer medium (mM: 140 NaCl, 5 KCl, 2.6 CaCl2, 1.3 MgSO4, 10 tris-HCl, pH=7.4)+200 μM of pargyline. This is followed by the addition of (^3 H)DA labelled dopamine at a final concentration of 5 nM for 5 min at 30° C. and sampling is interrupted by filtration of the incubate (150 μl) on GF/B filters. The non-specific sample is measured at 4° C. in parallel incubations and is deducted from the total sample at 30° C. The IC50 is the compound concentration preventing 50% of the specific capture compared with the control in the absence of an inhibitor.

[4] = test system: pyramidal cells Ca3 of Ammon's horn; test: Cerebral aging in mice, histology of the hippocampus; type: in vivo; conditions: 5 mg/kg intraperitoneal at 23rd, 24th and 25th months; 26th month
Experimental: (§1) This example illustrates the effect of arylcyclohexylamines on cerebral aging. No matter what the cause of the cerebral aging (vascular or degenerative), it leads to a neuronal loss at the cerebral cortex, the hippocampas and to a lesser extent the cerebellum. This cellular loss can be quantified by simple histological methods and evaluated on a larger scale by means of semi-automatic image analysis methods.
(§2) In this example 6 mice aged 23 months by intraperitonealy injecting 3 of them with 5 mg/kg of TCP in the physiological solute at the 23rd, 24th and 25th months and 3 other mice were intraperitonealy injected with the physiological solute only. At the 26th month, all the mice were sacrificed by intracardial perfusion of a 5% glutaraldehyde solution, the brains were cut up with the vibratone and the sections dyed by the NISSL method.
(§3) The results obtained are given in FIGS. 2 to 5, which are sections of the brain and the cerebellum of the treated mice and the untreated control mice.

[5] = target: cerebral cholinergic muscarinic receptor; type: binding, rat; conditions: for IC50: rat brain homogenate, read-out: ^3 HQNB IC50; for ^3 HQNB/^3 HTCP: ratio of IC50
[6] = test system: cortical and hippocampal neurons; test: In vitro neuron culture survival after 2 months, count of neurons (Example 23); type: cell-based, rat; conditions: single dose at start of third week; TCP 2.5 and 20, compound 9 and MK801 2.5 and 5 μmole/l; control 50 neurons/mm^2
Experimental: This example also illustrates the effect of the arylcyclohexylamines according to the invention on the in vitro neuron culture survival. As in example 21, cortical and hippocampal neuron cultures are prepared. At the start of the third culturing week, the cells are treated with a single dose of the compound to be tested and culturing is continued for two months. At the end of this period, the cells which were fixed and dyed to reveal the specific enolase of the neurons are subject to counts in order to determine the quantity of cells per surface unit.
The results obtained are given in FIG. 1, which is a histogram indicating the number of cells/mm^2 which survived after 2 months culturing.
The results are given for the control, i.e. for untreated cultures, cultures treated with 2.5 and 20 μmole/l of TCP, cultures treated by compound no. 9 at concentrations of 2.5 and 5 μmole/l and cultures treated by compound MK801 at concentrations of 2.5 and 5 μmole/l. Compound MK801, which is known to have a neuroprotection activity, is (+)-methyl-5-dihydro-10,11(5H)dibenzo(A,D) cyclohepteneimine-5,10 of formula: [drawing 38] From FIG. 1 it can be seen that the control cultures, after surviving for 2 months, on average contain 50 neurons/mm^2. The treated cultures, no matter what the compound and dose used, contain more than 500 neurons/mm^2.

[7] = test system: Swiss mice; test: Simple rotary bar test (dose at which 50% of the animals drop); type: in vivo; conditions: Mus musculus, sc; Swiss mice, subcutaneous, dose at which 50% of the animals drop; read-out: ED50
Experimental: In this example, the properties of compounds 1 to 5 and 8 to 11 are tested on Swiss mice.
Different doses of the compounds to be tested are administered subcutaneously to the mice and the latter are then placed in batches of 10 on a rotary bar, being separated from one another by separating disks. This bar is made from scraped wood, has a diameter of 3 cm and is moved horizontally with a uniform circular movement about its axis at a speed of 10 rpm.
Determination takes place of the ED50, which is the dose at which 50% of the animals drop, the dose being expressed in mg/kg.

[8] = target: T1, receptor of the opiates (Rattus norvegicus, UniProt P33535); test: Competition test with ^3 H-DHM for the receptor of the opiates; type: binding
T1 construct: variable concentrations of the tested compound and a rat brain homogenate; from tissue; host or cells: rat brain homogenate
T1 sequence (P33535 whole entry): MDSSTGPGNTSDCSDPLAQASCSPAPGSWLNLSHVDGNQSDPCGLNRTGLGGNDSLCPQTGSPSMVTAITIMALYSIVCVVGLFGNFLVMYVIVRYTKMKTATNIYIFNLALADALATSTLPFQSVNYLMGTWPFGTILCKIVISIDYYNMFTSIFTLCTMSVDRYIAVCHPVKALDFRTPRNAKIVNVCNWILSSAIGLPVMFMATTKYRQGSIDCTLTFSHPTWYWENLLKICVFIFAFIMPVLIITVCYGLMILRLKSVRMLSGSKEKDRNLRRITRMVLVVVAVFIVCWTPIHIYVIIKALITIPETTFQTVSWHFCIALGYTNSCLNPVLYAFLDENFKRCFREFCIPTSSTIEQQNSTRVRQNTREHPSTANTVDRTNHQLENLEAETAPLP
Experimental: In this test, a fixed concentration of ^3 H-DHM labelled morphine was incubated in the presence of variable concentrations of the tested compound and a rat brain homogenate. The concentration of the compound preventing the fixing of 50% of ^3 H-DHM (IC50) is a measure of the affinity of the compound for the receptor of the opiates. The latter also gives the results obtained with PCP and TCP, as well as the ratios H^3 DA/^3 H-TCP, ^3 HQNB/^3 H-TCP and ^3 HDHM/^3 HTCP obtained with the different tested compounds.

[9] = test system: Purkinje cells; test: Cerebral aging in mice, histology of the cerebellum; type: in vivo; conditions: 5 mg/kg intraperitoneal at 23rd, 24th and 25th months; 26th month
Experimental: as §1, §2, §3

[10] = Subcutaneous LD50 in the rat; conditions: in vivo, sc

| Compound | IC50 [1] [nM] | IC50 [2] [nM] | IC50 ([3]; rat striatal synaptosomes, 5 nM (^3 H)DA, 5 min at 30° C., pH 7.4, read-out: ^3 HDA IC50) [nM] | ^3 HDA/^3 H-TCP ([3]; ratio of IC50) | rarefaction of the pyramidal cells Ca3 of Ammon's horn versus untreated [4] | IC50 [5] [nM] | ^3 HQNB/^3 HTCP [5] | number of neurons which survived after 2 months culturing [6] | ED50 [7] [mg/kg] | IC50 ([8]; rat brain homogenate, read-out: ^3 HDHM IC50) [nM] | ^3 HDHM/^3 HTCP ([8]; ratio of IC50) | rarefication of the Purkinje cells at the cerebellum versus untreated [9] | LD50 [10] [mg/kg] |
| --- | --- | --- | --- | --- | --- | --- | --- | --- | --- | --- | --- | --- | --- |
| c1csc(C2(N3CCCCC3)CCCCC2)c1 [TCP, ((2-thienyl)-1 cyclohexyl)-N-piperidine, reference compound] | 26 | 63 | 1600 | 25.39 | much less marked | 21000 | 333 | more than 500 neurons/mm^2 | 2.3 | 11000 | 74.6 | much less significant |  |
| OCC1CCCN(C2(c3ccccc3)CCCCC2)C1 (centres unmarked) [compound 4, [(hydroxymethyl-3piperidino)-1]-1phenyl-1 cyclohexane] | 1000 |  |  |  |  | 100000 | 100 |  | 1.8 |  |  |  | > 60 |
